{
  "source": "paper PMC11876601",
  "about": "(Molecular Systems Biology, 2025)",
  "key": {"PANC-1 cells": {"tested_on": "PANC-1 cells", "experiment": "Cell proliferation assay, GEM + ATR inhibitor (Incucyte confluence, 72 h);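 for EC50: in combination experiments GEM is titrated while ATRi is held at a fixed sub-EC50 dose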;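 for all read-outs here: PANC-1 confluence at 72 h taken as raw values, not normalized to starting confluence, with each experiment run in triplicate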", "settings": "for EC50: Homo sapiens, experiment GEM (GEM alone, in the series of the ATRi named in column Drug); for Response: ATRi 0 nM (GEM), R1-R3"}, "[1]": {"tested_on": "p-sites in DNA-damaged AsPC-1 cells", "experiment": "decryptM dose-resolved phosphoproteomics of ATRi in GEM-pre-treated cells", "format": "cell-based, human", "procedure": "Cell culture medium was replaced 24 h after seeding. […] For time point 0, AsPC-1 cells were treated with a vehicle and lysed immediately. The final DMSO concentration in all experiments was 0.2%.\nBriefly, cells were washed twice with PBS and lysed in SDS lysis buffer (2% SDS in 40 mM Tris-HCl, pH 7.6), followed by sonication for 10 min (30 s on/30 s off) using a Bioruptor (Diagenode). For DNA hydrolysis, samples were boiled at 95 °C for 10 min and incubated with 2% trifluoroacetic acid (TFA) for 1 min, before the reaction was quenched using 4% N-methylmorpholine. Lysate was cleared by centrifugation at 11,000 × g for 5 min and protein concentration was determined using the Pierce BCA Protein Assay Kit (Thermo Scientific).\nUsing 70% ethanol, samples were then precipitated on beads, followed by washing thrice with 80% ethanol and once with 100% acetonitrile. Subsequently, proteins were reduced and alkylated using 10 mM TCEP, 50 mM chloroacetamide, and 2 mM CaCl2 in 100 mM EPPS/NaOH, pH 8.5 for 1 h at 37 °C, followed by tryptic digestion at 37 °C for 16 h. Peptides were acidified with 1% TFA and desalted on Chromabond HLB plates (30 µm particle size, 10 mg capacity, Machery-Nagel), using 0.1% TFA for equilibration and sample loading, and 0.1% TFA in 70% acetonitrile for peptide elution. Recovered peptides were freeze-dried by vacuum-centrifugation and stored at −20 °C.\nDepending on the experiment, samples were either labeled with TMT-11plex (decryptM), TMT-10plex (non-decryptM, quadruplicates), or TMTpro reagent (time-series; all Thermo Scientific). Therefore, dried peptides were reconstituted in 15 µl 100 mM EPPS, pH 8.5 and each treatment condition was labeled with one channel of the respective TMT reagent (5 µl of 25 µg/µl reagent, Appendix Tables S4–S6). The reaction was incubated for 1 h at 23 °C and subsequently quenched with 0.4% hydroxylamine. Then, samples were pooled, acidified with 1% formic acid, and freeze-dried by vacuum-centrifugation. Labeled peptide pools were desalted on C18 Sep-Pak cartridges (37–55 µm particle size, 50 mg capacity, Waters), using 0.1% formic acid as equilibration solvent, and 0.1% formic acid in 60% acetonitrile was used as elution solvent. Eluted peptides were freeze-dried and stored at −20 °C until further use.\nBasic reversed-phase (bRP) fractionation of peptides was performed on a Vanquish HPLC (Thermo Scientific). In short, dried peptides were reconstituted in 200 µl 25 mM ammonium bicarbonate, pH 8.0 and directly injected onto a Waters BEH130 XBridge C18 column (3.5 µm, 4.6 × 250 mm). […] Using an automated fraction collector, 96 fractions were collected between min 7 and 55 after injection. Fractions were acidified with 1% formic acid and pooled to 48 fractions, before they were freeze-dried and stored at −20 °C.\nImmobilized metal ion affinity chromatography (IMAC) enrichment of phosphorylated peptides was performed on the Bravo automated liquid handling platform using AssayMAP Fe(III)-NTA cartridges (Agilent). In brief, the 48 dried peptide fractions were reconstituted in 0.1% TFA in 80% acetonitrile and further pooled to 12 fractions (200 µl final volume per well). The phosphopeptide enrichment protocol embedded in the Agilent AssayMAP Bravo Protein Sample Prep Workbench v2.0 software was run. Thereby, the cartridges were first primed with 150 μl 0.1% TFA in acetonitrile at 300 μl/min, and equilibrated with 150 μl 0.1% TFA in 80% acetonitrile at 10 μl/min. Then, pooled fractions were loaded at 5 µl/min and further washed three times with 150 μl 0.1% TFA in 80% acetonitrile at 50 μl/min. Enriched peptides were eluted with 60 μl 1% ammonium hydroxide at 5 μl/min."}, "[2]": {"settings": "PANC-1, experiment GEM (GEM alone), plateau of fitted curve, ratio drug/vehicle confluence"}},
  "note": "Where “and” joins values, the source holds several entries; their conditions need not be identical. Identical values can stand only once. Like-named read-outs stand apart in the source and are kept apart here.",
  "data": [
    {"smiles": "Nc1ccn([C@@H]2O[C@H](CO)[C@@H](O)C2(F)F)c(=O)n1", "note": "[GEM, Gemcitabine]", "values": [
      {"measurement": "EC50", "setting": "PANC-1 cells; PANC-1, PANC-1, replicates R1-R3", "result": "5.84e-08", "unit": "M"},
      {"measurement": "EC50", "setting": "PANC-1 cells; PANC-1, read-out: pEC50, PANC-1 (converted), -log10 of EC50 [M]", "result": "5.89e-08", "unit": "M"},
      {"measurement": "Response", "setting": "PANC-1 cells; PANC-1, GEM 1 nM", "result": "55.73 and 93.02 and 87.94"},
      {"measurement": "Response", "setting": "PANC-1 cells; PANC-1, GEM 3 nM", "result": "54.62 and 89.30 and 88.72"},
      {"measurement": "Response", "setting": "PANC-1 cells; PANC-1, GEM 10 nM", "result": "65.10 and 93.01 and 80.93"},
      {"measurement": "Response", "setting": "PANC-1 cells; PANC-1, GEM 30 nM", "result": "43.73 and 76.60 and 68.58"},
      {"measurement": "Response", "setting": "PANC-1 cells; PANC-1, GEM 300 nM", "result": "45.56 and 60.97 and 63.22"},
      {"measurement": "Response", "setting": "PANC-1 cells; PANC-1, GEM 1000 nM", "result": "38.26 and 66.03 and 59.27"},
      {"measurement": "Response", "setting": "PANC-1 cells; PANC-1, GEM 3000 nM", "result": "35.94 and 56.55 and 61.30"},
      {"measurement": "Curve bottom", "setting": "PANC-1 cells; [2]", "result": "1.02 and 1.05 and 1.06 and 0.91 and 1.00 and 0.98"},
      {"measurement": "Curve top", "setting": "PANC-1 cells; [2]", "result": 0.74}
    ]},
    {"smiles": "C[C@@H]1COCCN1c1cc(-c2ccnn2C)c2ccnc(-c3ccn[nH]3)c2n1", "note": "[Elimusertib]", "values": [
      {"measurement": "Log2 PTM response (GEM+ATRi vs. GEM)", "setting": "[1]", "result": -0.6},
      {"measurement": "Log2 PTM response (GEM+ATRi vs. GEM)", "setting": "[1]; BRCA1-pS1239", "result": -1.6},
      {"measurement": "Log2 PTM response (GEM+ATRi vs. GEM)", "setting": "[1]; BRD8-pS621", "result": -1.4},
      {"measurement": "Log2 PTM response (GEM+ATRi vs. GEM)", "setting": "[1]; CDKN2AIP-pS198", "result": -1.1},
      {"measurement": "Log2 PTM response (GEM+ATRi vs. GEM)", "setting": "[1]; CHEK1-pS317", "result": -1.9},
      {"measurement": "Log2 PTM response (GEM+ATRi vs. GEM)", "setting": "[1]; CHEK1-pS468", "result": -3},
      {"measurement": "Log2 PTM response (GEM+ATRi vs. GEM)", "setting": "[1]; DHX9-pS321", "result": -1.6},
      {"measurement": "Log2 PTM response (GEM+ATRi vs. GEM)", "setting": "[1]; EXO1-pS714", "result": -1},
      {"measurement": "Log2 PTM response (GEM+ATRi vs. GEM)", "setting": "[1]; FANCD2-pS319", "result": -1.9},
      {"measurement": "Log2 PTM response (GEM+ATRi vs. GEM)", "setting": "[1]; HDGF-pS103", "result": -1.1},
      {"measurement": "Log2 PTM response (GEM+ATRi vs. GEM)", "setting": "[1]; HMGA1-pS9", "result": -1.4},
      {"measurement": "Log2 PTM response (GEM+ATRi vs. GEM)", "setting": "[1]; HMGA1-pS36;S44", "result": -1},
      {"measurement": "Log2 PTM response (GEM+ATRi vs. GEM)", "setting": "[1]; HMGA1-pS44", "result": -1.5},
      {"measurement": "Log2 PTM response (GEM+ATRi vs. GEM)", "setting": "[1]; HSPA4-pS552", "result": -0.7},
      {"measurement": "Log2 PTM response (GEM+ATRi vs. GEM)", "setting": "[1]; HTATSF1-pS481", "result": -0.8},
      {"measurement": "EC50", "setting": "[1]; Homo sapiens, ASPC1, read-out: EC50, RALY S176", "result": 12.8, "unit": "nM"},
      {"measurement": "Log2 PTM response (GEM+ATRi vs. GEM)", "setting": "[1]; LRRC42-pS385", "result": -2.3},
      {"measurement": "Log2 PTM response (GEM+ATRi vs. GEM)", "setting": "[1]; NBN-pS397", "result": -0.9},
      {"measurement": "Log2 PTM response (GEM+ATRi vs. GEM)", "setting": "[1]; NBN-pS615", "result": -0.8},
      {"measurement": "Log2 PTM response (GEM+ATRi vs. GEM)", "setting": "[1]; PELP1-pS1033", "result": -1},
      {"measurement": "Log2 PTM response (GEM+ATRi vs. GEM)", "setting": "[1]; PNISR-pS706", "result": -1.9},
      {"measurement": "Log2 PTM response (GEM+ATRi vs. GEM)", "setting": "[1]; PPP6R3-pS825", "result": -0.5},
      {"measurement": "Log2 PTM response (GEM+ATRi vs. GEM)", "setting": "[1]; PSMD4-pS266", "result": -0.9},
      {"measurement": "Log2 PTM response (GEM+ATRi vs. GEM)", "setting": "[1]; RAD18-pS368", "result": -2.1},
      {"measurement": "Log2 PTM response (GEM+ATRi vs. GEM)", "setting": "[1]; RIF1-pS1873", "result": -0.6},
      {"measurement": "Log2 PTM response (GEM+ATRi vs. GEM)", "setting": "[1]; SNRPA-pS115", "result": -1.1},
      {"measurement": "Log2 PTM response (GEM+ATRi vs. GEM)", "setting": "[1]; TCEA1-pS100;S97", "result": -2},
      {"measurement": "Log2 PTM response (GEM+ATRi vs. GEM)", "setting": "[1]; TCEB3-pS251", "result": -0.7},
      {"measurement": "Log2 PTM response (GEM+ATRi vs. GEM)", "setting": "[1]; THAP4-pS186", "result": -1.1},
      {"measurement": "Log2 PTM response (GEM+ATRi vs. GEM)", "setting": "[1]; TOPBP1-pS1504", "result": -1.2},
      {"measurement": "Log2 PTM response (GEM+ATRi vs. GEM)", "setting": "[1]; TSEN34-pS136", "result": -0.8},
      {"measurement": "Log2 PTM response (GEM+ATRi vs. GEM)", "setting": "[1]; UHRF1-pS393", "result": -0.7},
      {"measurement": "Log2 PTM response (GEM+ATRi vs. GEM)", "setting": "[1]; UIMC1-pS171", "result": -1.7},
      {"measurement": "Log2 PTM response (GEM+ATRi vs. GEM)", "setting": "[1]; ZC3H14-pS135", "result": -1.6},
      {"measurement": "ATRi Regulation (Curve), RALY S176", "setting": "[1]; classified by CurveCurator", "result": "down"},
      {"measurement": "PTM response (norm. to 1 µM GEM)", "setting": "[1]; source data 4B (p-site not named), 1 µM GEM + ATRi 10 nM", "result": 0.81},
      {"measurement": "PTM response (norm. to 1 µM GEM)", "setting": "[1]; source data 4B (p-site not named), 1 µM GEM + ATRi 300 nM", "result": 0.28},
      {"measurement": "PTM response (norm. to 1 µM GEM)", "setting": "[1]; source data 4B (p-site not named), 1 µM GEM + ATRi 1000 nM", "result": 0.29},
      {"measurement": "PTM response (norm. to 1 µM GEM)", "setting": "[1]; source data 4B (p-site not named), 1 µM GEM + ATRi 3000 nM", "result": 0.30},
      {"measurement": "PTM response (norm. to 1 µM GEM)", "setting": "[1]; source data 4B (p-site not named), 1 µM GEM + ATRi 10000 nM", "result": 0.27},
      {"measurement": "PTM response (norm. to 1 µM GEM)", "setting": "[1]; source data 5B (p-site not named), 1 µM GEM + ATRi 3 nM", "result": 0.67},
      {"measurement": "PTM response (norm. to 1 µM GEM)", "setting": "[1]; source data 5B (p-site not named), 1 µM GEM + ATRi 30 nM", "result": 0.17}
    ]}
  ]
}
